# Experimental data from the supplement of paper PMC10307832.
# Compound: Cc1ccc(Nc2nccc(N(C)c3ccc4c(C)n(C)nc4c3)n2)cc1S(N)(=O)=O [Pazopanib] + CS(=O)(=O)CCNCc1ccc(-c2ccc3ncnc(Nc4ccc(OCc5cccc(F)c5)c(Cl)c4)c3c2)o1 [Lapatinib] (partner 2 µM)
# Test: relative viability (nuclei count vs DMSO), 5 days (fraction); higher = more cells survive
# Details: first compound 0.01 µM
# Procedure, shortened: (§1)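 For relative viability, nuclei counts in treated wells were divided by those in vehicle wells. Lung cancer cell lines had been pin-tool dosed in 1536-well plates the day after seeding and cultured for 5 days, then fixed and stained in one step (final 0.05% Triton X-100, 1% formaldehyde, 1 ug/ml Hoechst) and imaged at 4×. Doses were one drug alone or a fixed anchor-drug dose plus five library-drug doses (not always all listed) in √10 steps, and values are duplicate-plate medians.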
row,Cell Line,relative viability
1,NCI-H838,0.961
2,NCI-H1650,0.693
3,EBC-1,0.184
4,NCI-H1703,1.09
5,NCI-H1993,0.69
6,NCI-H2347,0.86
7,PC-14,0.305
8,NCI-H596,0.931
9,NCI-H2126,0.611
10,EMC-BAC-2,0.735
11,NCI-H2085,0.511

# Same assay, conditions: first compound 0.03162 µM
row,Cell Line,relative viability
1,NCI-H838,1.09
2,NCI-H1650,0.868
3,EBC-1,0.251
4,NCI-H1703,0.629
5,NCI-H1993,0.853
6,NCI-H2347,0.971
7,PC-14,0.295
8,NCI-H596,1.03
9,NCI-H2126,0.713
10,EMC-BAC-2,0.921
11,NCI-H2085,0.794

# Same assay, conditions: first compound 0.1 µM
row,Cell Line,relative viability
1,NCI-H838,0.97
2,NCI-H1650,0.718
3,EBC-1,0.232
4,NCI-H1703,0.41
5,NCI-H1993,0.573
6,NCI-H2347,1.08
7,PC-14,0.304
8,NCI-H596,1.03
9,NCI-H2126,0.81
10,EMC-BAC-2,0.915
11,NCI-H2085,0.762

# Same assay, conditions: first compound 0.3162 µM
row,Cell Line,relative viability
1,NCI-H838,1.02
2,NCI-H1650,0.82
3,EBC-1,0.247
4,NCI-H1703,0.354
5,NCI-H1993,0.797
6,NCI-H2347,0.989
7,PC-14,0.379
8,NCI-H596,0.981
9,NCI-H2126,0.715
10,EMC-BAC-2,0.904
11,NCI-H2085,0.785

# Same assay, conditions: first compound 1 µM
row,Cell Line,relative viability
1,NCI-H838,1.13
2,NCI-H1650,0.895
3,EBC-1,0.232
4,NCI-H1703,0.286
5,NCI-H1993,0.927
6,NCI-H2347,1.02
7,PC-14,0.45
8,NCI-H596,1.17
9,NCI-H2126,0.821
10,EMC-BAC-2,0.991
11,NCI-H2085,0.853

# Compound: Cc1ccc(C(=O)Nc2ccc(CN3CCN(C)CC3)c(C(F)(F)F)c2)cc1C#Cc1cnc2cccnn12 [Ponatinib] + CS(=O)(=O)N1CCN(Cc2cc3nc(-c4cccc5[nH]ncc45)nc(N4CCOCC4)c3s2)CC1 [Pictilisib] (partner 1 µM)
# Test: as above
# Details: first compound 0.002 µM
# Procedure, shortened: as §1
row,Cell Line,relative viability
1,NCI-H838,0.564
2,NCI-H1650,0.601
3,EBC-1,0.372
4,NCI-H1703,0.278
5,NCI-H1993,0.804
6,NCI-H2347,0.677
7,PC-14,0.637
8,LCLC-103H,0.543
9,NCI-H596,0.354
10,NCI-H2126,0.513
11,EMC-BAC-2,0.549
12,NCI-H2085,0.489
13,ChaGo-K-1,0.59
14,NCI-H441,0.608

# Same assay, conditions: first compound 0.006325 µM
row,Cell Line,relative viability
1,NCI-H838,0.505
2,NCI-H1650,0.722
3,EBC-1,0.428
4,NCI-H1703,0.228
5,NCI-H1993,0.805
6,NCI-H2347,0.849
7,PC-14,0.691
8,LCLC-103H,0.592
9,NCI-H596,0.401
10,NCI-H2126,0.504
11,EMC-BAC-2,0.537
12,NCI-H2085,0.477
13,ChaGo-K-1,0.917
14,NCI-H441,0.48

# Same assay, conditions: first compound 0.06325 µM
row,Cell Line,relative viability
1,NCI-H838,0.455
2,NCI-H1650,0.642
3,EBC-1,0.327
4,NCI-H1703,0.223
5,NCI-H1993,0.73
6,NCI-H2347,0.692
7,PC-14,0.794
8,LCLC-103H,0.636
9,NCI-H596,0.36
10,NCI-H2126,0.587
11,EMC-BAC-2,0.684
12,NCI-H2085,0.451
13,ChaGo-K-1,0.879
14,NCI-H441,0.49

# Same assay, conditions: first compound 0.2 µM
row,Cell Line,relative viability
1,NCI-H838,0.455
2,NCI-H1650,0.558
3,EBC-1,0.283
4,NCI-H1703,0.205
5,NCI-H1993,0.868
6,NCI-H2347,0.414
7,PC-14,0.702
8,LCLC-103H,0.572
9,NCI-H596,0.374
10,NCI-H2126,0.617
11,EMC-BAC-2,0.527
12,NCI-H2085,0.488
13,ChaGo-K-1,0.644
14,NCI-H441,0.313

# Compound: Cc1ccc(C(=O)Nc2ccc(CN3CCN(C)CC3)c(C(F)(F)F)c2)cc1C#Cc1cnc2cccnn12 [Ponatinib]
# Test: relative viability (nuclei count vs DMSO), 5 days (fraction); higher = more cells survive
# Details: 0.002 µM
# Procedure, shortened: (§2)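 Vehicle-anchored 1536-well plates of lung cancer cell lines, held overnight at 37 °C, were pinned with five library-drug doses (not always all listed) spaced by √10. No medium change followed over the next 5 days, after which the cells were fixed, permeabilised and Hoechst-stained together and imaged at 4×. Nuclei were counted with MetaXpress, and viability is treated-well nuclei over vehicle-well nuclei, taken as a median across plates. Plates passed with control CV below 25% and at least one doubling.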
row,Cell Line,relative viability
1,NCI-H2342,0.958
2,NCI-H1623,0.991
3,NCI-H838,0.95
4,NCI-H1650,0.915
5,EBC-1,0.926
6,NCI-H1703,0.821
7,NCI-H1993,1.02
8,NCI-H2347,0.977
9,PC-14,0.887
10,LCLC-103H,0.925
11,NCI-H596,0.906
12,NCI-H2126,0.959
13,EMC-BAC-2,0.821
14,NCI-H2085,1.01
15,NCI-H1648,0.862
16,ChaGo-K-1,0.872
17,NCI-H522,0.816
18,SW 900,0.817
19,NCI-H441,0.899

# Same assay, conditions: 0.006325 µM
row,Cell Line,relative viability
1,NCI-H2342,0.946
2,NCI-H1623,1.05
3,NCI-H838,1.01
4,NCI-H1650,1.05
5,EBC-1,1.05
6,NCI-H1703,0.83
7,NCI-H1993,1.03
8,NCI-H2347,1
9,PC-14,0.984
10,LCLC-103H,1
11,NCI-H596,0.924
12,NCI-H2126,1.04
13,EMC-BAC-2,0.973
14,NCI-H2085,0.997
15,NCI-H1648,0.836
16,ChaGo-K-1,0.988
17,NCI-H522,1
18,SW 900,0.783
19,NCI-H441,0.925

# Same assay, conditions: 0.06325 µM
row,Cell Line,relative viability
1,NCI-H2342,1.01
2,NCI-H1623,1.01
3,NCI-H838,0.994
4,NCI-H1650,1.22
5,EBC-1,1.16
6,NCI-H1703,0.466
7,NCI-H1993,1.2
8,NCI-H2347,1.19
9,PC-14,1.16
10,LCLC-103H,1.05
11,NCI-H596,0.875
12,NCI-H2126,1.14
13,EMC-BAC-2,1.04
14,NCI-H2085,1.19
15,NCI-H1648,0.671
16,ChaGo-K-1,1
17,NCI-H522,0.818
18,SW 900,0.889
19,NCI-H441,1.07

# Same assay, conditions: 0.2 µM
row,Cell Line,relative viability
1,NCI-H2342,0.999
2,NCI-H1623,0.969
3,NCI-H838,0.793
4,NCI-H1650,0.891
5,EBC-1,0.924
6,NCI-H1703,0.333
7,NCI-H1993,1.05
8,NCI-H2347,0.977
9,PC-14,0.993
10,LCLC-103H,0.957
11,NCI-H596,0.785
12,NCI-H2126,1.04
13,EMC-BAC-2,0.822
14,NCI-H2085,1.06
15,NCI-H1648,0.799
16,ChaGo-K-1,0.88
17,NCI-H522,0.847
18,SW 900,0.794
19,NCI-H441,0.855

# Compound: Cc1ccc(Nc2nccc(N(C)c3ccc4c(C)n(C)nc4c3)n2)cc1S(N)(=O)=O [Pazopanib]
# Test: as above
# Details: 0.01 µM
# Procedure, shortened: as §2
row,Cell Line,relative viability
1,NCI-H2342,0.687
2,NCI-H1623,0.964
3,NCI-H838,0.918
4,NCI-H1650,1.05
5,EBC-1,1.01
6,NCI-H1703,0.744
7,NCI-H2347,0.932
8,PC-14,1.06
9,LCLC-103H,0.762
10,NCI-H596,0.815
11,NCI-H2126,0.91
12,NCI-H2085,0.973
13,NCI-H1648,0.582
14,ChaGo-K-1,0.927
15,NCI-H522,0.723
16,SW 900,0.796
17,NCI-H441,0.931

# Same assay, conditions: 0.03162 µM
row,Cell Line,relative viability
1,NCI-H2342,0.945
2,NCI-H1623,0.909
3,NCI-H838,1.01
4,NCI-H1650,1.02
5,EBC-1,1.05
6,NCI-H1703,0.735
7,NCI-H1993,0.791
8,NCI-H2347,1
9,PC-14,1.07
10,LCLC-103H,1.03
11,NCI-H596,1.05
12,NCI-H2126,0.903
13,EMC-BAC-2,0.977
14,NCI-H2085,1.04
15,NCI-H1648,0.869
16,ChaGo-K-1,1.01
17,NCI-H522,0.978
18,SW 900,0.902
19,NCI-H441,1.05

# Same assay, conditions: 0.1 µM
row,Cell Line,relative viability
1,NCI-H2342,0.957
2,NCI-H1623,0.885
3,NCI-H838,0.996
4,NCI-H1650,0.954
5,EBC-1,0.978
6,NCI-H1703,0.562
7,NCI-H1993,0.936
8,NCI-H2347,0.98
9,PC-14,1.06
10,LCLC-103H,0.984
11,NCI-H596,0.959
12,NCI-H2126,1.02
13,EMC-BAC-2,0.93
14,NCI-H2085,0.966
15,NCI-H1648,0.842
16,ChaGo-K-1,1.04
17,NCI-H522,0.864
18,SW 900,0.762
19,NCI-H441,0.982

# Same assay, conditions: 0.3162 µM
row,Cell Line,relative viability
1,NCI-H2342,0.883
2,NCI-H1623,1.06
3,NCI-H838,1.05
4,NCI-H1650,1.12
5,EBC-1,0.956
6,NCI-H1703,0.353
7,NCI-H1993,0.983
8,NCI-H2347,1.05
9,PC-14,1.1
10,LCLC-103H,0.948
11,NCI-H596,0.904
12,NCI-H2126,0.991
13,EMC-BAC-2,1.03
14,NCI-H2085,1.01
15,NCI-H1648,0.903
16,ChaGo-K-1,0.99
17,NCI-H522,0.983
18,SW 900,1.12
19,NCI-H441,0.905

# Same assay, conditions: 1 µM
row,Cell Line,relative viability
1,NCI-H2342,0.852
2,NCI-H1623,0.929
3,NCI-H838,1.14
4,NCI-H1650,1.16
5,EBC-1,1.09
6,NCI-H1703,0.331
7,NCI-H1993,0.86
8,NCI-H2347,1.04
9,PC-14,1.11
10,LCLC-103H,1.04
11,NCI-H596,1.05
12,NCI-H2126,0.996
13,EMC-BAC-2,1.04
14,NCI-H2085,1.02
15,NCI-H1648,0.837
16,ChaGo-K-1,0.978
17,NCI-H522,1.12
18,SW 900,1.2
19,NCI-H441,0.958
